Experimental data taken from article PMC8386742, “Discovery of N-aryl sulphonamide-quinazoline derivatives as anti-gastric cancer agents in vitro and in vivo via activating the Hippo signalling pathway” (Journal of Enzyme Inhibition and Medicinal Chemistry, 2021).
pIC50: −log10 of the molar value.

Legend:
[1] = tested on: GES-1 cells; assay: MTT antiproliferative assay, GES-1 normal gastric epithelial cells; type: cell-based
Description: Furthermore, MGC-803 cells were more sensitive to the compounds than HCT-116, PC-3 cells MCF-7 cells. Moreover, we chose two other common gastric cancer cell lines (HGC-27 and SGC-7901) and another two normal cells GES-1 and HUEVC cells to examine for the inhibitory activity of compound 9i.
Since compound 9i presented high potency against cancer cells and MGC-803 cells was more sensitive to compound 9i, compound 9i, MGC-803, another two gastric cancer cells SGC-7901, HGC-27, and GES-1(normal gastric epithelial cells) were used for further detection. As shown in Figures 3(A,B), compound 9i inhibited three gastric cancer cell lines in the dose and time-dependent manners. The inhibition ratios of compound 9i against three gastric cancer cells were all above 50% after 48 h in the high dosage group. Moreover, MGC-803 and SGC-7901 cell lines were more sensitive and compound 9i inhibited over 65% cell viability with high dose treatment for 48 h.
Cell lines used were cultured in humidified incubator in a humidified atmosphere of 5% CO2 and 95% air. The RPMI-1640 medium was supplemented with 10% foetal bovine serum, penicillin (100 U/ml) and streptomycin (0.1 mg/ml).
Cell lines were seeded into 96-well plates and incubated for 24 h. Then cells were treated with different concentrations of compounds. And after another 48 h, MTT reagent (20 μL per well) was added to each well and then incubated at 37 °C for 4 h. After the suspension was discarded, formazan was then dissolved with DMSO. Absorbencies of formazan solution were measured at 490 nm. The IC50 values of tested compounds were calculated by SPSS version 17.0.

[2] = tested on: MGC-803 cells; assay: Annexin V-FITC/PI cell apoptosis assay, MGC-803 cells; type: cell-based, human; conditions: MGC-803, high dose, 48 h
Experimental: (§1) Bcl-2 regulated by the Hippo/YAP plays an important role in cell apoptosis. Therefore, we next examined the effects of compound 9i on cell apoptosis. MGC-803 and SGC-7901 cells were treated with compound 9i for 48 h, as shown in Figures 5(A,B), the nuclei of gastric cancer are dense and fragmented, and cells became round, small, and was induced to die. To determine the influence of compound 9i on cell death, MGC-803 and SGC-7901 cells treated with compound 9i were stained with Annexin V-FITC/PI. As shown in Figure 5(C), the high dose compound 9i treatment group induced over 60% of cell apoptosis at 48 h. As shown in Figure 5(D), some other apoptosis-related proteins were also regulated by compound 9i in MGC-803 and SGC-7901 cells. Compound 9i caused dose-dependent decreases of anti-apoptosis proteins c-IAP and Mcl-1. […] Mitochondrial membrane potential depolarisation and translocation from the mitochondria to the cytoplasm of cytochrome c are two key steps involved in the intrinsic apoptosis pathway. As shown in Figures 5(F–H), compound 9i depolarised mitochondrial membrane potential and induced the translocation of cytochrome c.
(§2) Figure 5. Compound 9i induced apoptosis in MGC-803 and SGC-7901 cells. Density ratios relative to β-Actin were shown on the top of each Western blotting band. […] The cell line of each row appears only in tiny plot titles that cannot be read with certainty. […]

[3] = tested on: SGC-7901 cells; assay: Annexin V-FITC/PI cell apoptosis assay, SGC-7901 cells; type: cell-based; conditions: SGC-7901, high dose, 48 h
Experimental: as §1, §2

[4] = In vivo toxicity in MGC-803 bearing mice (body weight, blood biochemistry, H&E); design: species or system nude mice
Experimental: The bodyweight of mice was recorded during the treatment every 3 days. […] Blood samples and organs were collected after mice were executed.
A human gastric cancer subcutaneous transplantation tumour model was established with MGC-803 cells. After the tumour volume reaches 100 mm3 the MGC-803 bearing mice were randomised into 3 groups and intraperitoneal injection with normal saline or drugs continuously for 21 days. Tumour volume was measured every 3 days (Length × Width2/2). Mice were executed after treatment. 500 μL blood samples was collected each mouse, samples were then centrifuged at 2000 g for 10 min for biochemistry analysis. Tumour and organs tissues were harvested for H&E staining or immunochemistry detection. The experiments in the study were performed comply with the protocols approved by the Institutional Animal Care and Use Committee, Zhengzhou University.

**Q.** With `COc1ccc(S(=O)(=O)N(Cc2nc(C)c3ccccc3n2)c2cc(OC)c(OC)c(OC)c2)cc1` [Compound 9i, 4-Methoxy-N-((4-methylquinazolin-2-yl)methyl)-N-(3,4,5-trimethoxyphenyl) benzene-sulfonamide] as the compound, how does the pIC50 ([1]; Homo sapiens, GES1, MTT, exposure for 48 h, non-cancer cell line) read?
**A.** 6.05

**Q.** And the “cytotoxicity towards GES-1 cells” value ([1]; normal gastric epithelial cells)?
**A.** low cytotoxicity

**Q.** What about the cell apoptosis [2] of the same compound?
**A.** over 60%

**Q.** What about the cell apoptosis [3] of the same compound?
**A.** over 60%

**Q.** What about the “blood biochemical indexes (ALT, AST, T-BIL, UA, CRE, BUN) versus vehicle control group” value ([4]; blood samples after execution) of the same compound?
**A.** no significant difference

**Q.** And the toxicity in vivo ([4]; body weight, blood biochemistry, H&E staining of organs)?
**A.** did not show obvious toxicity in vivo

**Q.** What about the “bodyweight of mice versus vehicle control group” value ([4]; recorded every 3 days during 21 days treatment) of the same compound?
**A.** did not show a significant difference
